The values below come from US11179408B2, “Use of cyanoglucosides and pharmaceutical formulations thereof in the treatment of diabetes” (UNIVERSIDADE ESTADUAL PAULISTA JULIO DE MESQUITA FILHO, priority 2016, dated 2021).

In assay [1] the test system is diabetic mice. The experiment in a line: Fasting blood glucose in streptozotocin diabetic mice. The class given is in vivo, Male Swiss mice. Particulars: for fasting blood glucose: streptozotocin diabetic mice, end of treatment, p<0.05. On the procedure:
The hydroalcoholic extract as obtained in Example 1 and the major compound lithospermoside (BH-21) as obtained in Example 2 were evaluated for their pharmacological activity in reducing fasting blood glucose and improving glucose tolerance in diabetic animals as described below.
(§1) The major compound of the cyanoglicoside fraction, BH-21 was tested at a concentration of 10 mg/kg in diabetic mice by gavage daily for 28 days. Male Swiss mice were divided into two groups and treated daily for 28 days by gavage: a control group (CTLSAL) that received saline vehicle (0.9% NaCl) and a group called streptozotocin, previously treated with this drug (150 mg/kg). Animals with blood glucose higher than 250 mg/dl were included in the study and divided into three experimental groups. One group, named streptozotocin saline (STZSAL) received saline (0.9% NaCl); another group of animals treated with metformin (STZMET) at the dose of 300 mg/kg and a third group (LITHOS) received the compound BH-21 (lithospermoside), diluted in saline at a dose of 10 mg/kg body weight.

Assay [2] has as its system diabetic mice. The experiment in a line: Intraperitoneal glucose tolerance test (IPGTT) in diabetic mice. It counts as in vivo. Conditions: streptozotocin diabetic mice; for IPGTT area under the curve (AUC): compared to CTLSAL group. As to the method: The leaves extract obtained under Example 1 was tested at a concentration of 400 mg/kg. The mice were treated daily for days by gavage with the extract as well as metformin (300 mg/kg), and at the end of treatment they underwent an […] glucose tolerance test.
The intraperitoneal glucose tolerance assay (IPGTT) was used to evaluate the glucose disappearance from the plasma of 8-10 hours fasted mice at time 0 and after glucose intraperitoneal injection (2 g/kg) in 15, 30, 60, 90 and 120 min as represented on FIG. 2A where curves represent: CTLSAL: normoglycemic mice treated orally with saline vehicle (0.9% NaCl), STZSAL: diabetic mice treated orally with saline vehicle (0.9% NaCl), STZMET: diabetic mice treated orally with metformin at the concentration of 300 mg/kg, STZEXT: diabetic mice treated orally with 70% EtOH extract at a concentration of 400 mg/kg. […] Data expressed as mean±standard error of the mean. ANOVA followed by Tukey post test. a vs. CTLSAL, b vs. STZSAL, c vs. STZMET, N=8-12, p<0.05.
as §1

For assay [3], the system named is alloxan-induced diabetic rats. Conditions: oral, 50, 100 and 200 mg/kg; cited from earlier work.
A further assay relates to normal rats. Conditions: oral, 200 mg/kg, 1 h after treatment; cited from earlier work.
Where [4] appears, read: 10 mg/kg by gavage daily for 28 days.

Each structure is given as a SMILES string.

As for `CN(C)C(=N)N=C(N)N` [metformin], the fasting blood glucose result with diabetic mice [1] (metformin 300 mg/kg daily for 28 days, vs CTLSAL) is “significantly increased”. In the assay with diabetic mice [2] (metformin 300 mg/kg daily for 28 days), the “IPGTT area under the curve (AUC)” value was “no significant difference”.

`C[C@@H]1O[C@@H](Oc2cc(O)c3c(=O)c(O[C@@H]4O[C@@H](C)[C@H](O)[C@@H](O)[C@H]4O)c(-c4ccc(O)cc4)oc3c2)[C@H](O)[C@H](O)[C@H]1O` [kaempferitrin, kaempferol-3,7-O—(R)-dirhamnoside]: the hypoglycemic effect result in assay [3] is recorded as “evident at all doses tested”. For the same compound, the blood glucose lowering result with normal rats is recorded as “blood glucose lowering was observed only with the higher dose”.

In the case of `N#C/C=C1/C=C[C@@H](O)[C@H](O)[C@H]1OC1OC(CO)C(O)C(O)C1O` (stereo in doubt) [BH-21, (2Z)-2-[(4R,5S,6S)-4,5-dihydroxy-6-[[(2S,3S,4R,5R,6S)-3,4,5-trihydroxy-6-(hydroxymethyl)-2-oxanyl]oxy]-1-cyclohex-2-enylidene]acetonitrile], the “in vivo hypoglycemic activity relative to metformin” value in the assay with diabetic mice [1] (higher than metformin) is recorded as “about 30 times”. In addition, the fasting blood glucose entry in the assay on diabetic mice [1] (setting [4]) was “significantly lower than in STZSAL and STZMET groups but greater than the CTLSAL group”. The “IPGTT area under the curve (AUC)” value with diabetic mice [2] (setting [4]) is recorded as “no significant difference”. The “IPGTT blood glucose values after intraperitoneal administration of glucose” value in the assay with diabetic mice [2] (10 mg/kg daily for 28 days, vs metformin 300 mg/kg group, p<0.05) is on record as “significantly lower than the STZMET group at all times”.
